Results on 13 compounds are retold here after patent US20180185370A1, “PYRAZINOQUINAZOLINONE DERIVATIVES WITH ANTIBACTERIAL ACTIVITY, METHODS AND USES THEREOF” (UNIVERSIDADE DO PORTO, priority 2015, published 2018).

Assay [1] deals with S. aureus B1. Description: Synergy screening with antibiotic discs, disc diffusion method. Type of assay: cell-based, Staphylococcus aureus. As to conditions: not in combination; MRSA isolate S. aureus B1. The method, then:
(§1) Synergistic studies between compounds and antibiotics. A screening susceptibility test to assess the combined effect between the compounds and antibiotics was conducted using the disc diffusion method on MH, against three multidrug-resistant isolates, E. coli G1, S. aureus B1 and E. faecalis W1. A set of antibiotic discs (Oxoid, Basingstoke, England) was selected based on the resistance of the isolates towards those antibiotics. Based on the results of the previous assay, an unexpected synergetic effect between fiscalin C (see FIG. 1I, equation v) and oxacillin (Sigma-Aldrich, St. Louis, Mo., USA) was determined using, in particular, a broth microdilution Checkerboard method against the MRSA isolate (S. aureus B1). The fractional inhibitory concentration (FIC) was calculated as follows: FIC of drug A (FIC A)=MIC of drug A in combination/MIC of drug A alone, and FIC of drug B (FIC B)=MIC of drug B in combination/MIC of drug B alone. The FIC index (ΣFIC), calculated as the sum of each FIC, was interpreted as follows: ΣFIC 0.5, synergy; 0.5<ΣFIC 4, no interaction; 4<ΣFIC, antagonism.

In assay [2] the test system is S. aureus B1. Description: Broth microdilution Checkerboard method. The class given is cell-based, Staphylococcus aureus. Conditions: Staphylococcus aureus. The method, then:
as §1, with “Based on the results of the previous assay, an unexpected synergetic effect between fiscalin C (see FIG. 1I, equation v) and oxacillin (Sigma-Aldrich, St. Louis, Mo., USA) was determined using, in particular, a broth microdilution Checkerboard method against the MRSA isolate (S. aureus B1).” left out

Assay [3] has as its system E. faecalis W1 (VRE). Description: Antibacterial susceptibility testing, broth microdilution (MIC/MBC). The class given is cell-based, Enterococcus faecalis. As to conditions: for MIC: Enterococcus faecalis, read-out: Minimum inhibitory concentration-MIC. The procedure: (§2) Bacterial strains and growth conditions. Five reference strains, Staphylococcus aureus ATCC 25923, Bacillus subtilis ATCC 6633, E. faecalis ATCC 29212, Escherichia coli ATCC 25922 and Pseudomonas aeruginosa ATCC 27853, and three multidrug-resistant isolates from environment, S. aureus B1 (a MRSA isolated from public buses), Enterococcus faecalis W1 (a VRE isolated from river water) and E. coli G1 (isolated from seagull feces) were used. Bacteria were grown overnight at 37° C. in Mueller-Hinton agar (MH—BioKar diagnostics, Allonne, France) prior to obtain be used in the subsequently described bioassays.
(§3) Antibacterial susceptibility testing. The minimum inhibitory concentration (MIC) values of the compounds of FIGS. 1D, 1E, 1G, 1H (equation i-iv) and 11 (equations v-x) were determined, in particular, by a broth microdilution technique, following the recommendations of the Clinical and Laboratory Standards Institute. Stock solutions of 10 mg/ml in DMSO were used to prepare in-test concentrations ranging from 2 to 256 μg/ml. Ciprofloxacin in the concentration range from 0.03125 to 16 μg/ml was used, in particular, as control drug in the experiment. The MIC was defined as the lowest concentration of compound that has inhibited the visible growth. The minimum bactericidal concentration (MBC) was determined by spreading on MH plates, 10 μL collected from the wells corresponding to the MIC and to higher concentrations, with further incubation for 24 h at 37° C.; the lowest concentration at which no growth occurred on MH was defined as the MBC.

Assay [4] has as its system E. faecalis ATCC 29212. The assay is described as above. The class given is cell-based, Enterococcus faecalis. As to conditions: for MIC: Enterococcus faecalis, ATCC29212, read-out: Minimum inhibitory concentration-MIC. The method, then:
as §2, §3

For assay [5], the system named is E. coli ATCC 25922. Description: Antibacterial susceptibility testing, broth microdilution (MIC). Type of assay: cell-based, Escherichia coli. As to conditions: for MIC: Escherichia coli, ATCC25922, read-out: Minimum inhibitory concentration-MIC. The procedure:
as §2, §3

For assay [6], the system named is P. aeruginosa ATCC 27853. The assay is described as above. Type of assay: cell-based, Pseudomonas aeruginosa. As to conditions: for MIC: Pseudomonas aeruginosa, ATCC27853, read-out: Minimum inhibitory concentration-MIC. The procedure:
as §2, §3

Assay [7] has as its system S. aureus ATCC 25923. Description: Antibacterial susceptibility testing, broth microdilution (MIC/MBC). Type of assay: cell-based, Staphylococcus aureus. Conditions: for MIC: Staphylococcus aureus, ATCC25923, read-out: Minimum inhibitory concentration-MIC. The method, then: as §2, §3
Assay [8] deals with S. aureus B1 (MRSA). The assay is described as above. Type of assay: cell-based, Staphylococcus aureus. Conditions: for MIC: Staphylococcus aureus, read-out: Minimum inhibitory concentration-MIC. The method, then:
as §2, §3

In assay [9] the test system is B. subtilis ATCC 6633. The description is as above. The class given is cell-based, Bacillus subtilis. Conditions: for MIC: Bacillus subtilis, ATCC6633, read-out: Minimum inhibitory concentration-MIC. The method, then:
as §2, §3

Like-named read-outs stand apart in the source and are kept apart here.

With `CC1(C)S[C@@H]2[C@H](NC(=O)[C@H](N)c3ccccc3)C(=O)N2[C@H]1C(=O)O` [Ampicillin, ampicillin, reference compound], the “zone of inhibition on agar plates” value in assay [1] was “neither fiscalin C, ampicillin or oxacillin produced any zone of inhibition”. In assay [2] (B1), the MIC amounted to 128 mg/L.
As for `CC(C)[C@]12NC(=O)[C@H](Cc3c1[nH]c1ccccc31)n1c2nc2ccccc2c1=O` [FIG. 1D, sartorymensin], the “Minimum inhibitory concentration-MIC” value in [3] (E. faecalis W1 (VRE)), in assay [4], in assay [5], in [6], in [7] and in assay [8] (S. aureus B1 (MRSA)) was over 256 mg/L in each case. The “Minimum inhibitory concentration-MIC” value in [9] was over 256 mg/L.
`CC(=O)O[C@H](c1nc2ccccc2c(=O)n1[C@@H]1C[C@]2(OC1=O)c1ccccc1N1C(=O)C(C)(C)N(O)[C@H]12)C(C)C` [FIG. 1E, tryptoquivaline]: the MIC in assay [3] (VRE), in assay [4], in [5], in [6], in assay [7] and in assay [8] (MRSA) was over 256 mg/L each time. For the same compound, in assay [9], the MIC is over 256 mg/L.
On to `O=C1OC2(CC1n1cnc3ccccc3c1=O)C(=O)Nc1ccccc12` (stereo not drawn) [FIG. 1G, 3′-(4oxoquinazolin-3yl) spiro [1H-indole-3,5′-oxolane]-2,2′-dione], for which the MIC in assay [3] (E. faecalis W1 (VRE)), in [4], in assay [5], in assay [6], in assay [7] and in assay [8] (S. aureus B1 (MRSA)) was over 256 mg/L in each case. Further, in assay [9], the MIC was over 256 mg/L.
Regarding `CC1(C)C(=O)N2c3ccccc3C3(CC(n4cnc5ccccc5c4=O)C(=O)O3)C2N1O` (stereo not drawn) [FIG. 1H (eq. i), tryptoquivaline L], the “Minimum inhibitory concentration-MIC” value in [3] (E. faecalis W1 (VRE)), in [4], in assay [5], in [6], in [7] and in assay [8] (S. aureus B1 (MRSA)) was over 256 mg/L in each case. The “Minimum inhibitory concentration-MIC” value in [9] is over 256 mg/L.
Take `C[C@H]1C(=O)N2c3ccccc3[C@@]3(C[C@@H](n4cnc5ccccc5c4=O)C(=O)O3)[C@@H]2N1O` [FIG. 1H (eq. ii), tryptoquivaline H]: the “Minimum inhibitory concentration-MIC” value in [3] (E. faecalis W1 (VRE)), in assay [4], in assay [5], in [6], in assay [7] and in [8] (S. aureus B1 (MRSA)) was over 256 mg/L each time. The “Minimum inhibitory concentration-MIC” value in [9] was over 256 mg/L.
Regarding `C[C@@H]1N[C@@H]2N(C1=O)c1ccccc1[C@@]21C[C@@H](n2cnc3ccccc3c2=O)C(=O)O1` [FIG. 1H (eq. iii), tryptoquivaline F], the “Minimum inhibitory concentration-MIC” value in [3] (E. faecalis W1 (VRE)), in assay [4], in [5], in [6], in [7] and in assay [8] (S. aureus B1 (MRSA)) was over 256 mg/L in each case. For the same compound, the “Minimum inhibitory concentration-MIC” value in [9] is over 256 mg/L.
`CC(C)[C@@H]1NC(=O)[C@@H](C[C@]2(O)c3ccccc3N3C(=O)[C@H](C)N[C@H]32)n2c1nc1ccccc1c2=O` [FIG. 1I (eq. vii), fiscalin A]: the “Minimum inhibitory concentration-MIC” value in assay [3] (E. faecalis W1 (VRE)), in assay [4], in assay [5], in assay [6], in assay [7] and in [8] (S. aureus B1 (MRSA)) was over 256 mg/L each time. Moreover, the “Minimum inhibitory concentration-MIC” value in assay [9] was over 256 mg/L.
For `CC(C)[C@H]1NC(=O)[C@@H](C[C@]2(O)c3ccccc3N3C(=O)[C@H](C)N[C@H]32)n2c1nc1ccccc1c2=O` [FIG. 1I (eq. viii), epi-fiscalin A], the “Minimum inhibitory concentration-MIC” value in assay [3] (E. faecalis W1 (VRE)), in assay [4], in assay [5], in assay [6], in assay [7] and in assay [8] (S. aureus B1 (MRSA)) was over 256 mg/L in each case. The “Minimum inhibitory concentration-MIC” value in assay [9] is over 256 mg/L.
Consider `Cc1onc(-c2ccccc2)c1C(=O)N[C@@H]1C(=O)N2[C@@H]1SC(C)(C)[C@@H]2C(=O)O` [Oxacillin, oxacillin, reference compound], for which, in assay [1], the “zone of inhibition on agar plates” value is listed as “neither fiscalin C, ampicillin or oxacillin produced any zone of inhibition”. The MIC in [2] (drug alone, S. aureus B1, read-out: MIC) was 128 mg/L.
On to epi-fiscalin C [FIG. 1I (eq. vi)], for which the “Minimum inhibitory concentration-MIC” value in assay [3] (E. faecalis W1 (VRE)), in assay [4], in assay [5], in [6], in [7] and in [8] (S. aureus B1 (MRSA)) was over 256 mg/L throughout. Moreover, in assay [9], the “Minimum inhibitory concentration-MIC” value was over 256 mg/L.
As to epi-neofiscalin A [FIG. 1I (eq. x)], the “Minimum inhibitory concentration-MIC” value in assay [3] (E. faecalis W1 (VRE)), in assay [4], in assay [5], in [6], in assay [7] and in [8] (S. aureus B1 (MRSA)) was over 256 mg/L in each case. The “Minimum inhibitory concentration-MIC” value in assay [9] was over 256 mg/L.
As to tryptoquivaline O [FIG. 1H (eq. iv)], the “Minimum inhibitory concentration-MIC” value in assay [3] (E. faecalis W1 (VRE)), in assay [4], in assay [5], in assay [6], in [7] and in [8] (S. aureus B1 (MRSA)) was over 256 mg/L in each case. Further, the “Minimum inhibitory concentration-MIC” value in [9] is over 256 mg/L.
